This is an account of results in paper PMC4629797 (Organic & biomolecular chemistry, 2015).

Structures are written as SMILES. A value given as a limit tells only on which side of the number the result lay.

The test system of test [1] is 20S proteasome. Conditions: potency comparable to belactosins A and C; cited from earlier work.
The test system of test [2] is MCF-7 cell line (breast cancer). Kind of test: Cytotoxicity, standard MTT colorimetric assay, MCF-7. It counts as cell-based. Conditions: read-out: IC50 MCF-7, MCF-7 breast cancer cells. A general note: Formazan colour is commonly taken as a measure of viable cells.
In test [3] the test system is MCF10A cell line (normal breast epithelial cells). Nature of the test: Cytotoxicity, standard MTT colorimetric assay, MCF10A. It counts as cell-based. Conditions: read-out: IC50 MCF10A.

With `CC[C@H](C)[C@H](NC(=O)[C@@H](NC(=O)C1OC(=O)C1C(C)C)C(C)C)C(=O)O` (single isomer, unassigned; (-)) [(−)-1, cystargolide A], the “activity as 20S proteasome inhibitors” value in test [1] is “exhibited activity as 20S proteasome inhibitors”. Further, the values for the IC50 in test [2] and in test [3] were 58 ± 9.5 µM and more than 100 µM, respectively.

In the case of `CC(C)C1C(=O)OC1C(=O)N[C@H](C(=O)N[C@H](C(=O)O)C(C)C)C(C)C` (single isomer, unassigned; (-)) [(−)-2, cystargolide B], the “activity as 20S proteasome inhibitors” value in test [1] is “exhibited activity as 20S proteasome inhibitors”. For the same compound, the IC50 – broadly, the midpoint of a concentration-inhibition curve – was 84.7 ± 18.6 µM in test [2] and more than 100 µM in test [3].
